The text below walks through data of patent US8226943B2, “Antibodies to notch receptors” (OncoMed Pharmaceuticals, Inc., priority 2008, dated 2012).

The target of one assay is T1, hNotch1 (Homo sapiens, UniProt P46531).
T1 construct: recombinant human and mouse Notch proteins (EGF10-15 for Notch1, 2, & 4; EGF9-14 for Notch3) were immobilized on a CM5 chip
Briefly: Biacore affinity, human Notch1. It is filed as binding. The conditions noted are these: Table 6, Biacore; read-out: IgG Dissociation Constant (KD) h-Notch1. The method, then:
The affinities for human and mouse Notch1, Notch2, Notch3, and Notch4 were determined using a Biacore 2000 instrument. Briefly, recombinant human and mouse Notch proteins (EGF10-15 for Notch1, 2, & 4; EGF9-14 for Notch3) were immobilized on a CM5 chip using standard amine based chemistry (NHS/EDC). For hNotch2, EGF1-12 was also tested for binding. Different antibody concentrations (1-100 nM) were injected over the protein surfaces and kinetic data were collected over time. The data was fit using the simultaneous global fit equation to yield dissociation constants (KD, nM) for each Notch (Table 3).
The sequences of the heavy chain and light chain are provided in SEQ ID NO: 49 and SEQ ID NO:18, respectively. The heavy chain variable region is provided in SEQ ID NO:50 and the light chain variable region is provide SEQ ID NO:13. The heavy chain CDR3 sequence of 59R5 comprises SIFYTT, SEQ ID NO:51. The other CDR sequences of 59R5 are identical to 59R1. […] Both antibodies bind human and murine Notch2 and Notch3 receptors with sub-nanomolar affinity (see Table 6).

The next assay has as its system PE13 breast tumor cells. Briefly: PE13 breast tumor xenograft growth. The assay is classed as in vivo, NOD/SCID mice. On the procedure: In certain embodiments, NOD/SCID mice injected with 50,000 PE13 or T3 breast tumor cells were treated with anti-Notch2/3 antibody 59R1 or control antibody 1B7.11 two days following cell injections. Antibodies were dosed at 10 mg/kg twice week.
In a further experiment, anti-Notch2/3 antibodies were tested for an effect on breast tumor growth. NOD/SCID mice were injected with 50,000 PE13 or T3 breast tumor cells, and tumors were allowed to grow to a size of between 65 to 200 mm^3 after which mice were randomized (n=10 per experimental group), and antibodies administration begun. Animals were treated with 15 mg/kg of either control 1B7.11 antibodies or anti-Notch2/3 59R1 antibodies twice weekly. Tumor size was measured twice weekly, and tumor volume was calculated as described (see Michieli et al., 2004).
The 59R1 IgG2 antibody was also tested in vivo in the breast tumor xenograft lines OMP-B34, OMP-B39, OMP-B44, PE13, and UM-T1, the pancreas tumor xenograft line OMP-PN8, and the colon tumor xenograft line OMP-C8. These tumor xenograft lines were established by adhering to procedures described in Al-Hajj et al., 2003, Proc. Natl. Acad. Sci. USA, 100:3983-3988. Female NOD/SCID immuno-compromised mice 7-10 weeks old were used for the establishment of the breast tumor xenografts and male NOD/SCID mice were used for the OMP-Pn8 and OMP-C8 tumor-models (Harlan, Indianapolis, Ind.). The 59R1 IgG2 antibody was also tested in vivo in a Colo-205 colon tumor xenograft model. Female immunodeficient bg/nu XID mice on a Swiss CD-1 background were used for the Colo-205 xenograft tumor model. In case of the breast cancer models, slow-releasing estrogen pellets (0.36 mg) had to be implanted. Mice were subcutaneously injected on the right flank with 50,000 (OMP-B34, OMP-B39, OMP-B44, PE13, and UM-T1) or 1×10^7 (Colo-205) viable cells, respectively, in a mixture of PBS (without magnesium or calcium) and Matrigel at a 1:1 ratio. The injected total volume per mouse was 200 μl with 50% being Matrigel. Once the tumor had reached a size between 65-200 mm^3, the mice were randomized. Antibodies were administered weekly and tumors measured twice weekly. LZ1 (a human antibody that recognizes lyzozyme) or 1B711 (a murine IgG1 antibody that recognizes the hapten trinitrophenol) was used as a control antibody for treatment of each tumor type. Tumor volume was calculated as described Al-Hajj et al. (2003). Data are expressed as the mean and the mean±S.E.M. Group means were compared using Student's two-tailed, unpaired t-test. […] All statistical analysis was performed using Microsoft EXCEL and Graph Pad PRISM.
In one embodiment, NOD/SCID mice were injected with PE13 breast tumor cells. The mice were treated with anti-Notch2/3 antibody 59R1, anti-Notch2/3 antibody 59R5, or control antibody. Antibodies were dosed at 15 mg/kg once per week in a “preventative” mode where dosing was initiated two days after cell injection.
In one embodiment, to evaluate the effect of 59R5 on cancer stem cells, a tumor recurrence study was carried out in the PE13 breast tumor model. NOD/SCID mice were injected with PE13 breast tumor cells. The tumors were allowed to grow for 40 days before treatments were initiated. The mice were treated with taxol at 15 mg/kg twice per week for 5 weeks, in combination with either control antibody or anti-Notch 2/3 antibody 59R5. After 5 weeks, the taxol treatments were stopped and the antibody treatments were continued.
(§1) Tumor volumes and p values for each experiment are shown relative to the control group. The PE13, C28 and Colo205 studies were carried out as described in Example 14. PN8 studies were carried out as described above. For the PN8 experiment, the control is gemcitabine alone and values for 59R1 and 59R5 are the combinations with gemcitabine. Antibodies were dosed once per week at 15 mg/kg for all experiments.

The subject of the next assay is C28 colon tumor cells. Briefly: C28 colon tumor xenograft growth. The conditions noted are these: for C28 Tumor vol relative to the control group / growth of C28 colon tumors: 15 mg/kg once per week; for growth of C28 colon tumors: preventative mode. The assay is classed as in vivo, NOD-SCID mice. The method, then:
C28 colon tumor cells (10,000 cells per mouse) were injected subcutaneously into the flank region of NOD-SCID mice. Tumors were allowed to grow for 24 days until they had reached an average volume of ˜130 mm^3. Animals were randomized into four treatment groups (n=10/group) and treatments were initiated. One group received a control antibody (1B711) at 10 mg/kg twice per week; one group received irintoecan at 7.5 mg/kg once per week plus the control antibody at 10 mg/kg twice per week; one group received 59R1 at 10 mg/kg twice per week, and the fourth group received the combination of 59R1 at 10 mg/kg twice per week and irinotecan at 7.5 mg/kg once per week. Tumor volumes were measured on the indicated days.
In another embodiment, NOD/SCID mice were injected with C28 colon tumor cells. The mice were treated with anti-Notch2/3 antibody 59R1, anti-Notch2/3 antibody 59R5 or control antibody. Antibodies were dosed at 15 mg/kg once per week in a “preventative” mode where dosing was initiated two days after cell injection.
as §1

T1 sequence (P46531 372-601 limits assumed): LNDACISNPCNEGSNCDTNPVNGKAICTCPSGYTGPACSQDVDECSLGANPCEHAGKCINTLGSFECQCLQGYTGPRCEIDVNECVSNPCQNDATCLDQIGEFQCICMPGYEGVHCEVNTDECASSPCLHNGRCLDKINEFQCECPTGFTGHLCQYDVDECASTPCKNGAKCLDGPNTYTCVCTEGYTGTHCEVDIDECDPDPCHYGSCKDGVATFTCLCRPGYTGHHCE

For “59R1: human IgG2 antibody binding Notch2 and Notch3; heavy and light chain SEQ ID NO:16 and 18; ATCC PTA-9547”, the Kd with hNotch1 is more than 10 nM. The “PE13 tumor growth compared to control” value with PE13 breast tumor cells (10 mg/kg twice week, started two days following cell injections) is “significantly reduced”. Besides, in the assay on PE13 breast tumor cells (15 mg/kg once per week), the “PE13 Tumor vol relative to the control group” value came out at 0.25. In addition, the “PE13 breast cancer growth relative to control antibody” value in the assay on PE13 breast tumor cells (established tumors, 15 mg/kg once a week) is “inhibit breast cancer growth”. Also, the “PE13 tumor growth compared to control” value in the assay on PE13 breast tumor cells (established tumors, 15 mg/kg twice weekly) was “significantly reduced”. Further, in the assay on C28 colon tumor cells, the “C28 Tumor vol relative to the control group” value was 0.29 and the “growth of C28 colon tumors” value is on record as “inhibited”. Moreover, in the assay with C28 colon tumor cells (59R1 10 mg/kg twice per week and irinotecan 7.5 mg/kg once per week), the “C28 tumor growth, combination of 59R1 and irinotecan relative to the irinotecan group” value is “inhibited”. In the assay on C28 colon tumor cells (established tumors, 10 mg/kg twice per week), the “C28 tumor growth, 59R1 alone relative to the control antibody group” value was “inhibited”.
Take “59R5: human antibody that specifically binds human Notch 2 and human Notch 3; heavy and light chain SEQ ID NO:49 and 18; ATCC PTA-10170”: the Kd with hNotch1 was more than 10 nM. For the same substance, the “PE13 Tumor vol relative to the control group” value with PE13 breast tumor cells (15 mg/kg once per week) was 0.18. Further, in the assay with PE13 breast tumor cells (15 mg/kg once per week, preventative mode (dosing two days after cell injection)), the “inhibition of PE13 tumor growth” value is given as “greater than 80%”. Besides, the “PE13 tumor recurrence after high-dose taxol treatment” value in the assay with PE13 breast tumor cells (taxol 15 mg/kg twice per week for 5 weeks plus antibody, then antibody only) was “significantly delay tumor recurrence”. For the same substance, in the assay with C28 colon tumor cells, the “C28 Tumor vol relative to the control group” value was found to be 0.38 and the “growth of C28 colon tumors” value is recorded as “inhibited”.
